Laboratory results taken from patent US11199542B2, “Method for labeling specifically living bacteria comprising the use of modified non endogenous monosaccharide compounds” (priority 2015, dated 2021).

Legend:
[1] = test system: Serratia marcescens; test: Metabolic labeling of living bacteria, click chemistry and fluorescence microscopy; type: cell-based; set-up: key: +: strains showing highly distinctive fluorescence on their membrane, indicative of an effective metabolic incorporation of the chemical reporter; −: the absence of labeling; details: first of two entries (Table 1 order: CIP102446), compound 10 mM, 24 hours, fluorochrome-alkyne click 30 minutes
[2] = test system: Escherichia coli O86; test: as above; type: cell-based; set-up: key: +: strains showing highly distinctive fluorescence on their membrane, indicative of an effective metabolic incorporation of the chemical reporter; −: the absence of labeling; details: compound 10 mM, 24 hours, fluorochrome-alkyne click 30 minutes
[3] = test system: Neisseria meningitidis; test: as above; type: cell-based; set-up: key: +: strains showing highly distinctive fluorescence on their membrane, indicative of an effective metabolic incorporation of the chemical reporter; −: the absence of labeling; details: compound 10 mM, 24 hours, fluorochrome-alkyne click 30 minutes
[4] = test system: Klebsiella pneumoniae; test: as above; type: cell-based; set-up: key: +: strains showing highly distinctive fluorescence on their membrane, indicative of an effective metabolic incorporation of the chemical reporter; −: the absence of labeling; details: second of two entries (Table 1 order: Clinical strain), compound 10 mM, 24 hours, fluorochrome-alkyne click 30 minutes
[5] = test system: Klebsiella pneumoniae; test: as above; type: cell-based; set-up: key: +: strains showing highly distinctive fluorescence on their membrane, indicative of an effective metabolic incorporation of the chemical reporter; −: the absence of labeling; details: first of two entries (Table 1 order: CIP 101114), compound 10 mM, 24 hours, fluorochrome-alkyne click 30 minutes
[6] = test system: Staphylococcus aureus; test: as above; type: cell-based; set-up: key to labeling (fluorescence on membrane, metabolic incorporation of the chemical reporter): +: strains showing highly distinctive fluorescence on their membrane, indicative of an effective metabolic incorporation of the chemical reporter; −: the absence of labeling
[7] = test system: Staphylococcus aureus aureus; test: as above; type: cell-based; set-up: key to labeling (fluorescence on membrane, metabolic incorporation of the chemical reporter): +: strains showing highly distinctive fluorescence on their membrane, indicative of an effective metabolic incorporation of the chemical reporter; −: the absence of labeling
[8] = test system: Providenda stuartii; test: as above; type: cell-based, Providencia stuartii; set-up: key: +: strains showing highly distinctive fluorescence on their membrane, indicative of an effective metabolic incorporation of the chemical reporter; −: the absence of labeling; details: compound 10 mM, 24 hours, fluorochrome-alkyne click 30 minutes
[9] = test system: Legionella pneumophila sg6; type: cell-based; set-up: key: +: strains showing highly distinctive fluorescence on their membrane, indicative of an effective metabolic incorporation of the chemical reporter; −: the absence of labeling; details: compound 10 mM, 24 hours, fluorochrome-alkyne click 30 minutes
[10] = test system: Escherichia coli K12; test: Metabolic labeling of living bacteria, click chemistry and fluorescence microscopy; type: cell-based; set-up: key: +: strains showing highly distinctive fluorescence on their membrane, indicative of an effective metabolic incorporation of the chemical reporter; −: the absence of labeling; details: compound 10 mM, 24 hours, fluorochrome-alkyne click 30 minutes
[11] = test system: Salmonella Typhimurium 12023; test: as above; type: cell-based; set-up: key: +: strains showing highly distinctive fluorescence on their membrane, indicative of an effective metabolic incorporation of the chemical reporter; −: the absence of labeling; details: compound 10 mM, 24 hours, fluorochrome-alkyne click 30 minutes
[12] = test system: Enterococcus faecalis; test: as above; type: cell-based; set-up: key to labeling (fluorescence on membrane, metabolic incorporation of the chemical reporter): +: strains showing highly distinctive fluorescence on their membrane, indicative of an effective metabolic incorporation of the chemical reporter; −: the absence of labeling
[13] = test system: Proteus mirabilis; test: as above; type: cell-based; set-up: key: +: strains showing highly distinctive fluorescence on their membrane, indicative of an effective metabolic incorporation of the chemical reporter; −: the absence of labeling; details: compound 10 mM, 24 hours, fluorochrome-alkyne click 30 minutes
[14] = test system: Serratia marcescens; test: as above; type: cell-based; set-up: key: +: strains showing highly distinctive fluorescence on their membrane, indicative of an effective metabolic incorporation of the chemical reporter; −: the absence of labeling; details: second of two entries (Table 1 order: Clinical strain), compound 10 mM, 24 hours, fluorochrome-alkyne click 30 minutes
[15] = test system: Listeria monocytogenes ½a; test: as above; type: cell-based; set-up: key: +: strains showing highly distinctive fluorescence on their membrane, indicative of an effective metabolic incorporation of the chemical reporter; −: the absence of labeling; details: compound 10 mM, 24 hours, fluorochrome-alkyne click 30 minutes
[16] = test system: Vibrio cholerae; test: as above; type: cell-based; set-up: key: +: strains showing highly distinctive fluorescence on their membrane, indicative of an effective metabolic incorporation of the chemical reporter; −: the absence of labeling; details: compound 10 mM, 24 hours, fluorochrome-alkyne click 30 minutes
[17] = test system: Stenotrophomonas maltophilia; test: as above; type: cell-based; set-up: key: +: strains showing highly distinctive fluorescence on their membrane, indicative of an effective metabolic incorporation of the chemical reporter; −: the absence of labeling; details: compound 10 mM, 24 hours, fluorochrome-alkyne click 30 minutes
[18] = test system: Micrococcus luteus; test: as above; type: cell-based; set-up: key to labeling (fluorescence on membrane, metabolic incorporation of the chemical reporter): +: strains showing highly distinctive fluorescence on their membrane, indicative of an effective metabolic incorporation of the chemical reporter; −: the absence of labeling
[19] = test system: Pseudomonas fluorescens Migula; test: as above; type: cell-based; set-up: key: +: strains showing highly distinctive fluorescence on their membrane, indicative of an effective metabolic incorporation of the chemical reporter; −: the absence of labeling; details: compound 10 mM, 24 hours, fluorochrome-alkyne click 30 minutes
[20] = test system: Staphylococcus epidermis; test: as above; type: cell-based; set-up: key to labeling (fluorescence on membrane, metabolic incorporation of the chemical reporter): +: strains showing highly distinctive fluorescence on their membrane, indicative of an effective metabolic incorporation of the chemical reporter; −: the absence of labeling
[21] = test system: Listeria monocytogenes ½; test: as above; type: cell-based; set-up: key to labeling (fluorescence on membrane, metabolic incorporation of the chemical reporter): +: strains showing highly distinctive fluorescence on their membrane, indicative of an effective metabolic incorporation of the chemical reporter; −: the absence of labeling
[22] = test system: Neisseria gonorrhoeae; test: as above; type: cell-based; set-up: key to labeling (fluorescence on membrane, metabolic incorporation of the chemical reporter): +: strains showing highly distinctive fluorescence on their membrane, indicative of an effective metabolic incorporation of the chemical reporter; −: the absence of labeling
[23] = compound 10 mM, 24 hours, fluorochrome-alkyne click 30 minutes

[N-]=[N+]=NC[C@@H](O)[C@@H](O)[C@H](O)[C@H](O)CC(=O)C(=O)O [Kdo-N3, 8-azido-3,8-dideoxy-D-manno-octulosonate]
+: labeling (fluorescence on membrane, metabolic incorporation of the chemical reporter) [1] | labeling (fluorescence on membrane, metabolic incorporation of the chemical reporter) [2] | labeling (fluorescence on membrane, metabolic incorporation of the chemical reporter) [3] | labeling (fluorescence on membrane, metabolic incorporation of the chemical reporter) [4] | labeling (fluorescence on membrane, metabolic incorporation of the chemical reporter) [5] | labeling (fluorescence on membrane, metabolic incorporation of the chemical reporter) [8] | labeling (fluorescence on membrane, metabolic incorporation of the chemical reporter) [9] | labeling (fluorescence on membrane, metabolic incorporation of the chemical reporter) [10] | labeling (fluorescence on membrane, metabolic incorporation of the chemical reporter) [11] | labeling (fluorescence on membrane, metabolic incorporation of the chemical reporter) [13] | labeling (fluorescence on membrane, metabolic incorporation of the chemical reporter) [14] | labeling (fluorescence on membrane, metabolic incorporation of the chemical reporter) [16] | labeling (fluorescence on membrane, metabolic incorporation of the chemical reporter) [17] | labeling (fluorescence on membrane, metabolic incorporation of the chemical reporter) [19]
did not assimilate: assimilation by the bacteria (in words) [6] | assimilation by the bacteria (in words) [7] | assimilation by the bacteria (in words) [12] | assimilation by the bacteria (in words) [18] | assimilation by the bacteria (in words) [20] | assimilation by the bacteria (in words) ([21]; Listeria monocytogenes (strain not given)) | assimilation by the bacteria (in words) [22]
−: labeling (fluorescence on membrane, metabolic incorporation of the chemical reporter) [6, 23] | labeling (fluorescence on membrane, metabolic incorporation of the chemical reporter) [7, 23] | labeling (fluorescence on membrane, metabolic incorporation of the chemical reporter) [12, 23] | labeling (fluorescence on membrane, metabolic incorporation of the chemical reporter) [15] | labeling (fluorescence on membrane, metabolic incorporation of the chemical reporter) [18, 23] | labeling (fluorescence on membrane, metabolic incorporation of the chemical reporter) [20, 23] | labeling (fluorescence on membrane, metabolic incorporation of the chemical reporter) ([21]; Listeria monocytogenes ½, compound 10 mM, 24 hours, fluorochrome-alkyne click 30 minutes) | labeling (fluorescence on membrane, metabolic incorporation of the chemical reporter) [22, 23]
